± gives the standard deviation of the averaged measurements.
How the values were obtained:
[1] = compound: CC/C(=C(\c1ccc(O)cc1)c1ccc(OCCN(C)C)cc1)c1ccccc1 [AFIMOXIFENE]; assay: surviving fraction relative to DMSO-only wells; higher = less growth inhibition; details: exposure time: 5 days
Outline: (§1)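 Inhibitors at 0.5, 1, 5, 10, 50, 100, 500 and 1000 nM were applied continuously for five days to tumour cell lines seeded in log phase at 250–500 cells per well in 384-well plates 24 hours earlier. Viability was measured by CellTiter-Glo luminescence and expressed as surviving fraction relative to the median of DMSO-only wells. Luminescence was taken after 10 minutes at room temperature.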

[2] = compound: COc1ccc(-c2cc3c(C)nc(N)nc3n([C@H]3CC[C@H](OCCO)CC3)c2=O)cn1; assay: as above; details: exposure time: 5 days
Outline: as §1

Row | Test System | surviving fraction ([1]; 0.5 nM) | surviving fraction ([1]; 1 nM) | surviving fraction ([1]; 5 nM) | surviving fraction ([1]; 10 nM) | surviving fraction ([1]; 50 nM) | surviving fraction ([1]; 100 nM) | surviving fraction ([1]; 500 nM) | surviving fraction ([1]; 1000 nM) | surviving fraction ([2]; 0.5 nM) | surviving fraction ([2]; 1 nM) | surviving fraction ([2]; 5 nM) | surviving fraction ([2]; 10 nM) | surviving fraction ([2]; 50 nM) | surviving fraction ([2]; 100 nM) | surviving fraction ([2]; 500 nM) | surviving fraction ([2]; 1000 nM)
1 | G292 BONE | 1.02 ± 0.016 | 1.01 ± 0.011 | 0.98 ± 0.033 | 1.02 ± 0.013 | 0.9545 ± 0.0072 | 1.015 ± 0.0096 | 0.903 ± 0.036 | 0.931 ± 0.048 | 0.951 ± 0.026 | 0.971 ± 0.037 | 0.853 ± 0.042 | 0.78 ± 0.011 | 0.422 ± 0.027 | 0.305 ± 0.013 | 0.124 ± 0.003 | 0.0955 ± 0.001
2 | HCC38 BREAST | 1.19 ± 0.1 | 1.1 ± 0.23 | 1.19 ± 0.19 | 1.2 ± 0.23 | – | 1.13 ± 0.18 | 0.99 ± 0.24 | 0.952 ± 0.08 | 0.974 ± 0.14 | 1.13 ± 0.17 | 1.21 ± 0.02 | 1.08 ± 0.069 | 1.14 ± 0.14 | 1.01 ± 0.34 | 0.409 ± 0.083 | 0.223 ± 0.046
3 | HCC70 BREAST | 1.05 ± 0.079 | 1.1 ± 0.027 | 1.08 ± 0.074 | 1.06 ± 0.03 | 1.19 ± 0.091 | 1.18 ± 0.062 | 1.04 ± 0.076 | 1.03 ± 0.071 | 1.01 ± 0.091 | 1.02 ± 0.092 | 1.06 ± 0.097 | 0.98 ± 0.026 | 0.623 ± 0.051 | 0.346 ± 0.011 | 0.111 ± 0.036 | 0.056 ± 0.0061
4 | HMLE3 BREAST | 1.06 ± 0.032 | 1.11 ± 0.062 | 1.2 ± 0.014 | 1.06 ± 0.05 | 1.12 ± 0.06 | 1.2 ± 0.12 | 1.09 ± 0.1 | 1.13 ± 0.1 | 0.914 ± 0.04 | 0.918 ± 0.061 | 0.858 ± 0.12 | 0.83 ± 0.035 | 0.611 ± 0.043 | 0.446 ± 0.024 | 0.121 ± 0.01 | 0.0777 ± 0.0064
5 | HMT3552 BREAST | 1.05 ± 0.062 | 1.02 ± 0.053 | – | 1 ± 0.042 | 1.15 ± 0.07 | 1.18 ± 0.061 | 1.18 ± 0.034 | 1 ± 0.076 | 0.941 | 0.913 | 0.883 | 0.813 | 0.535 | 0.279 | 0.09 | 0.077
6 | HS57T BREAST | 1.04 ± 0.086 | 1.05 ± 0.088 | 1.12 ± 0.062 | 1.156 ± 0.011 | 1.12 ± 0.071 | 1.19 ± 0.044 | 1.09 ± 0.038 | 1.08 ± 0.057 | 0.946 ± 0.059 | 1.01 ± 0.07 | 0.959 ± 0.026 | 0.939 ± 0.033 | 0.6 ± 0.023 | 0.429 ± 0.034 | 0.148 ± 0.004 | 0.117 ± 0.0076
7 | HS578T BREAST | 1.11 ± 0.14 | 0.963 ± 0.32 | 1.15 ± 0.17 | 1.01 ± 0.1 | 1.07 ± 0.062 | 1.24 ± 0.11 | 1.19 ± 0.19 | 1.21 ± 0.15 | 0.864 ± 0.19 | 0.946 ± 0.1 | 0.811 ± 0.047 | 0.759 ± 0.12 | 0.547 ± 0.048 | 0.403 ± 0.028 | 0.17 ± 0.008 | 0.111 ± 0.004
